# According to US20250108038A1 (priority 2023, published 2025):
# Where “and” joins values, the source holds several entries; their conditions need not be identical. Equal values may be shown once.
# Tested on: Long Evans rats
# Assay: Behavioral satiety sequence (BSS)
# Assay type: in vivo, Long Evans rat
# Details: for BSS scoring A (active), Time Bin 13 (60-65 TOTAL), AVG / BSS scoring A (active), Time Bin 14 (65-70 TOTAL), AVG / BSS scoring A (active), Time Bin 15 (70-75 TOTAL), AVG / BSS scoring A (active), Time Bin 16 (75-80 TOTAL), AVG / BSS scoring A (active), Time Bin 17 (80-85 TOTAL), AVG / BSS scoring A (active), Time Bin 18 (85-90 TOTAL), AVG / BSS scoring E (eating/drinking), Time Bin 13 (60-65 TOTAL), AVG / BSS scoring E (eating/drinking), Time Bin 14 (65-70 TOTAL), AVG / BSS scoring E (eating/drinking), Time Bin 15 (70-75 TOTAL), AVG / BSS scoring E (eating/drinking), Time Bin 16 (75-80 TOTAL), AVG / BSS scoring E (eating/drinking), Time Bin 17 (80-85 TOTAL), AVG / BSS scoring E (eating/drinking), Time Bin 18 (85-90 TOTAL), AVG / BSS scoring G (grooming), Time Bin 13 (60-65 TOTAL), AVG / BSS scoring G (grooming), Time Bin 14 (65-70 TOTAL), AVG / BSS scoring G (grooming), Time Bin 15 (70-75 TOTAL), AVG / BSS scoring G (grooming), Time Bin 16 (75-80 TOTAL), AVG / BSS scoring G (grooming), Time Bin 17 (80-85 TOTAL), AVG / BSS scoring G (grooming), Time Bin 18 (85-90 TOTAL), AVG / BSS scoring R (resting), Time Bin 13 (60-65 TOTAL), AVG / BSS scoring R (resting), Time Bin 14 (65-70 TOTAL), AVG / BSS scoring R (resting), Time Bin 15 (70-75 TOTAL), AVG / BSS scoring R (resting), Time Bin 16 (75-80 TOTAL), AVG / BSS scoring R (resting), Time Bin 17 (80-85 TOTAL), AVG / BSS scoring R (resting), Time Bin 18 (85-90 TOTAL), AVG: AVG of animals LT-1 to LT-12
# Excerpt: The Behavioural Satiety Sequence (BSS) is a technique used to evaluate physiological satiety. It is based on the expression of a sequence of behaviors including eating, grooming, locomotor activity, followed by resting, which are typically observed in rodents post-ingestion (Halford et al, 1998, Pharmacology Biochemistry and Behaviour. 61(2): 159-168). The BSS is a widely used model for determining the effects of novel pharmaceuticals on food intake and measures of satiety in rodents (Oliveira et al, 2011, Revista de Nutrição. 24(4) 619-628), and to discriminate the cause of reduced food intake following pharmacological manipulation. For example, treatments that may reduce food intake by non-specific mechanisms, such as immobility, malaise, and taste adulteration, will disrupt this sequence (Halford et al, 1998, Pharmacology Biochemistry and Behaviour. 61(2): 159-168).
# Specifically, 12 male Long-Evans rats were food-deprived for 22 h with a 2 h feeding period each day. Rats were trained to consume daily food during the 2 h period over 25 days. The testing phase was initiated once the rats consistently consumed 16-18 g of food per day with ≤10% variance in amount of feed consumed. Feeding took place in designated individual boxes in a quiet room separate from the housing room. Continuous remote monitoring via video camera during feeding was used to assess the BSS. Food consumption was measured by weighing the total available food before and after the 2 h feeding window, correcting for spillage. Lorcaserin (1 mg/kg) was included as a reference control (Higgins et al, 2011, Neuropsychopharmacology. 37(5): 1177-1191). Subjects were tested using a repeated-measures, Latin square design with 2-3 days wash-out between treatment cycles.
# On scheduled test days, animals were monitored remotely via video camera during the feeding access period. The occurrence of four mutually exclusive behaviors (eating/drinking, grooming, active, rest) were individually scored. Over the 2 h feeding period, behaviors were assessed every 30 seconds. Scores were compiled into 23 5 min timebins (timebin 24 was removed due to early removal of animals) and the frequency of each behavior within each timebin was calculated to determine a temporal frequency of each measure (Rodgers et al, 2010, Pharmacology Biochemistry and Behaviour. 97: 3-14). Percentage time was plotted for each behavioral sequence in each timebin to compare between treatment groups (Higgins et al, 2011, Neuropsychopharmacology. 37(5): 1177-1191).
# [1] = 0.1 mg/kg, raw score per animal LT-1 to LT-12
# [2] = 0.3 mg/kg, raw score per animal LT-1 to LT-12
compound,measurement,setting,value
Clc1ccc(C2(OCC3OCCO3)c3ccccc3C3=NCCN32)cc1 (stereo not drawn) [Compound I-19],"BSS scoring A (active), Time Bin 13 (60-65 TOTAL), AVG",0.1 mg/kg,0.20
same,"BSS scoring A (active), Time Bin 14 (65-70 TOTAL), AVG",0.1 mg/kg,0.10
same,"BSS scoring A (active), Time Bin 15 (70-75 TOTAL), AVG",0.1 mg/kg,0.13
same,"BSS scoring A (active), Time Bin 16 (75-80 TOTAL), AVG",0.1 mg/kg,0.23
same,"BSS scoring A (active), Time Bin 17 (80-85 TOTAL), AVG",0.1 mg/kg,0.36
same,"BSS scoring A (active), Time Bin 18 (85-90 TOTAL), AVG",0.1 mg/kg,0.22
same,"BSS scoring E (eating/drinking), Time Bin 13 (60-65 TOTAL), AVG",0.1 mg/kg,0.74
same,"BSS scoring E (eating/drinking), Time Bin 14 (65-70 TOTAL), AVG",0.1 mg/kg,0.83
same,"BSS scoring E (eating/drinking), Time Bin 15 (70-75 TOTAL), AVG",0.1 mg/kg,0.83
same,"BSS scoring E (eating/drinking), Time Bin 16 (75-80 TOTAL), AVG",0.1 mg/kg,0.63
same,"BSS scoring E (eating/drinking), Time Bin 17 (80-85 TOTAL), AVG",0.1 mg/kg,0.58
same,"BSS scoring E (eating/drinking), Time Bin 18 (85-90 TOTAL), AVG",0.1 mg/kg,0.71
same,"BSS scoring G (grooming), Time Bin 13 (60-65 TOTAL), AVG",0.1 mg/kg,0.03
same,"BSS scoring G (grooming), Time Bin 14 (65-70 TOTAL), AVG",0.1 mg/kg,0.05
same,"BSS scoring G (grooming), Time Bin 15 (70-75 TOTAL), AVG",0.1 mg/kg,0.01
same,"BSS scoring G (grooming), Time Bin 16 (75-80 TOTAL), AVG",0.1 mg/kg,0.05
same,"BSS scoring G (grooming), Time Bin 17 (80-85 TOTAL), AVG",0.1 mg/kg,0.05
same,"BSS scoring G (grooming), Time Bin 18 (85-90 TOTAL), AVG",0.1 mg/kg,0.02
same,"BSS scoring R (resting), Time Bin 13 (60-65 TOTAL), AVG",0.1 mg/kg,0.03
same,"BSS scoring R (resting), Time Bin 14 (65-70 TOTAL), AVG",0.1 mg/kg,0.02
same,"BSS scoring R (resting), Time Bin 15 (70-75 TOTAL), AVG",0.1 mg/kg,0.03
same,"BSS scoring R (resting), Time Bin 16 (75-80 TOTAL), AVG",0.1 mg/kg,0.08
same,"BSS scoring R (resting), Time Bin 17 (80-85 TOTAL), AVG",0.1 mg/kg,0.02
same,"BSS scoring R (resting), Time Bin 18 (85-90 TOTAL), AVG",0.1 mg/kg,0.06
same,"BSS scoring A (active), Time Bin 13 (60-65 TOTAL)",[1],0 (5×) and 4 (2×) and 5 and 1 (3×) and 8
same,"BSS scoring A (active), Time Bin 14 (65-70 TOTAL)",[1],0 (6×) and 1 (2×) and 4 and 2 (3×)
same,"BSS scoring A (active), Time Bin 15 (70-75 TOTAL)",[1],5 and 3 (3×) and 0 (7×) and 2
same,"BSS scoring A (active), Time Bin 16 (75-80 TOTAL)",[1],4 (3×) and 3 and 5 (2×) and 0 (4×) and 2 and 1
same,"BSS scoring A (active), Time Bin 17 (80-85 TOTAL)",[1],0 (3×) and 3 and 9 (2×) and 1 and 6 and 5 and 4 (2×) and 2
same,"BSS scoring A (active), Time Bin 18 (85-90 TOTAL)",[1],0 (4×) and 1 (2×) and 7 and 3 and 5 (2×) and 2 (2×)
same,"BSS scoring E (eating/drinking), Time Bin 13 (60-65 TOTAL)",[1],8 (4×) and 5 (2×) and 6 and 10 (3×) and 9 and 2
same,"BSS scoring E (eating/drinking), Time Bin 14 (65-70 TOTAL)",[1],10 (3×) and 8 (3×) and 9 (3×) and 5 and 7 (2×)
same,"BSS scoring E (eating/drinking), Time Bin 15 (70-75 TOTAL)",[1],5 and 7 (2×) and 10 (4×) and 9 (3×) and 6 and 8
same,"BSS scoring E (eating/drinking), Time Bin 16 (75-80 TOTAL)",[1],6 (3×) and 3 (3×) and 10 and 9 (2×) and 8 (2×) and 4
same,"BSS scoring E (eating/drinking), Time Bin 17 (80-85 TOTAL)",[1],10 (2×) and 7 and 0 and 9 (2×) and 3 and 4 and 5 (2×) and 6 and 2
same,"BSS scoring E (eating/drinking), Time Bin 18 (85-90 TOTAL)",[1],10 (4×) and 8 (2×) and 7 (3×) and 0 and 5 and 3
same,"BSS scoring G (grooming), Time Bin 13 (60-65 TOTAL)",[1],0 (9×) and 1 (3×)
same,"BSS scoring G (grooming), Time Bin 14 (65-70 TOTAL)",[1],0 (6×) and 1 (6×)
same,"BSS scoring G (grooming), Time Bin 15 (70-75 TOTAL)",[1],0 (11×) and 1
same,"BSS scoring G (grooming), Time Bin 16 (75-80 TOTAL)",[1],0 (9×) and 4 and 1 (2×)
same,"BSS scoring G (grooming), Time Bin 17 (80-85 TOTAL)",[1],0 (7×) and 1 (4×) and 2
same,"BSS scoring G (grooming), Time Bin 18 (85-90 TOTAL)",[1],0 (10×) and 1 (2×)
same,"BSS scoring R (resting), Time Bin 13 (60-65 TOTAL)",[1],2 and 0 (9×) and 1 (2×)
same,"BSS scoring R (resting), Time Bin 14 (65-70 TOTAL)",[1],0 (10×) and 1 (2×)
same,"BSS scoring R (resting), Time Bin 15 (70-75 TOTAL)",[1],0 (9×) and 1 (3×)
same,"BSS scoring R (resting), Time Bin 16 (75-80 TOTAL)",[1],0 (5×) and 2 and 3 and 1 (5×)
same,"BSS scoring R (resting), Time Bin 17 (80-85 TOTAL)",[1],0 (10×) and 1 (2×)
same,"BSS scoring R (resting), Time Bin 18 (85-90 TOTAL)",[1],0 (7×) and 1 (4×) and 3
same,"BSS scoring A (active), Time Bin 13 (60-65 TOTAL), AVG",0.3 mg/kg,0.09
same,"BSS scoring A (active), Time Bin 14 (65-70 TOTAL), AVG",0.3 mg/kg,0.13
same,"BSS scoring A (active), Time Bin 15 (70-75 TOTAL), AVG",0.3 mg/kg,0.32
same,"BSS scoring A (active), Time Bin 16 (75-80 TOTAL), AVG",0.3 mg/kg,0.13
same,"BSS scoring A (active), Time Bin 17 (80-85 TOTAL), AVG",0.3 mg/kg,0.17
same,"BSS scoring A (active), Time Bin 18 (85-90 TOTAL), AVG",0.3 mg/kg,0.23
same,"BSS scoring E (eating/drinking), Time Bin 13 (60-65 TOTAL), AVG",0.3 mg/kg,0.81
same,"BSS scoring E (eating/drinking), Time Bin 14 (65-70 TOTAL), AVG",0.3 mg/kg,0.80
same,"BSS scoring E (eating/drinking), Time Bin 15 (70-75 TOTAL), AVG",0.3 mg/kg,0.56
same,"BSS scoring E (eating/drinking), Time Bin 16 (75-80 TOTAL), AVG",0.3 mg/kg,0.79
same,"BSS scoring E (eating/drinking), Time Bin 17 (80-85 TOTAL), AVG",0.3 mg/kg,0.69
same,"BSS scoring E (eating/drinking), Time Bin 18 (85-90 TOTAL), AVG",0.3 mg/kg,0.62
same,"BSS scoring G (grooming), Time Bin 13 (60-65 TOTAL), AVG",0.3 mg/kg,0.03
same,"BSS scoring G (grooming), Time Bin 14 (65-70 TOTAL), AVG",0.3 mg/kg,0.03
same,"BSS scoring G (grooming), Time Bin 15 (70-75 TOTAL), AVG",0.3 mg/kg,0.04
same,"BSS scoring G (grooming), Time Bin 16 (75-80 TOTAL), AVG",0.3 mg/kg,0.01
same,"BSS scoring G (grooming), Time Bin 17 (80-85 TOTAL), AVG",0.3 mg/kg,0.05
same,"BSS scoring G (grooming), Time Bin 18 (85-90 TOTAL), AVG",0.3 mg/kg,0.10
same,"BSS scoring R (resting), Time Bin 13 (60-65 TOTAL), AVG",0.3 mg/kg,0.07
same,"BSS scoring R (resting), Time Bin 14 (65-70 TOTAL), AVG",0.3 mg/kg,0.05
same,"BSS scoring R (resting), Time Bin 15 (70-75 TOTAL), AVG",0.3 mg/kg,0.08
same,"BSS scoring R (resting), Time Bin 16 (75-80 TOTAL), AVG",0.3 mg/kg,0.08
same,"BSS scoring R (resting), Time Bin 17 (80-85 TOTAL), AVG",0.3 mg/kg,0.09
same,"BSS scoring R (resting), Time Bin 18 (85-90 TOTAL), AVG",0.3 mg/kg,0.06
same,"BSS scoring A (active), Time Bin 13 (60-65 TOTAL)",[2],0 (7×) and 2 and 3 and 1 (2×) and 4
same,"BSS scoring A (active), Time Bin 14 (65-70 TOTAL)",[2],1 (4×) and 3 and 0 (6×) and 8
same,"BSS scoring A (active), Time Bin 15 (70-75 TOTAL)",[2],0 (2×) and 4 (2×) and 6 and 8 and 1 (2×) and 3 (3×) and 5
